Test results from PubChem BioAssay (NCI).
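These data come from cells grown in 96-well plates and exposed to compound for 48 hours at five concentrations. GI50 = concentration required for 50% inhibition of growth. At the TGI there is no net growth.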

Assays:
Assay in all cases: NCI tumour cell line growth inhibition, 48 h
[1] = test system: HOP-18 NSCLC
[2] = test system: LXFL 529 NSCLC
[3] = test system: M19-MEL melanoma
[4] = test system: XF 498 CNS
[5] = test system: NCI/ADR-RES ovarian
[6] = test system: MDA-N
[7] = test system: BT-549 breast
[8] = test system: DU-145 prostate
[9] = test system: T-47D breast

| SMILES | TGI [1] | TGI [2] | TGI [3] | TGI [4] | other results |
| --- | --- | --- | --- | --- | --- |
| O=C(COc1ccccc1)NS(=O)(=O)c1ccccc1 | > 100 µM | > 100 µM | > 100 µM | – | – |
| NC(=S)N/N=C1/C(=O)N(c2ccc(Cl)cc2Cl)C(=O)C(=O)C1c1nc2ccccc2s1 (stereo not given) | > 100 µM | > 100 µM | > 100 µM | > 100 µM | – |
| COc1ccc(/C=C2\CCC(C)(CN(C)C)C2=O)cc1 (stereo not given) | > 100 µM | > 100 µM | > 100 µM | > 100 µM | – |
| CC1=C(C(=O)NCc2ccccc2)C(c2ccccc2[N+](=O)[O-])C(C(=O)NCc2ccccc2)=C(C)N1 | 35.1 µM | 23.1 µM | 23.9 µM | 31.9 µM | – |
| COC(=O)C(Cl)=C1CC1 | – | 29.5 µM | > 100 µM | 88.7 µM | – |
| CC(C)(C)C(=O)C1CC(=O)c2ccccc2C1=O (stereo not given) | > 100 µM | – | > 100 µM | > 100 µM | – |
| COc1ccc(/C(C)=N/OC(=O)c2c(-c3ccccc3Cl)noc2C)cc1CN1CCOCC1 | – | – | – | – | TGI [5]: > 100 µM; TGI [6]: 39.9 µM; TGI [7]: 54.9 µM; TGI [8]: > 100 µM; TGI [9]: 71 µM |
| C[C@@]12CCC(=O)C=C1CC[C@H]1C2=CC[C@]2(C)C1CC[C@@]2(C)O (stereo not given in full) | – | – | – | – | TGI [5]: > 100 µM; TGI [6]: > 100 µM; TGI [7]: > 100 µM; TGI [8]: > 100 µM; TGI [9]: > 100 µM |
| O=C1C(=O)C(Br)(Br)C(Br)=C1Br | 29.8 µM | 29 µM | 34.4 µM | – | – |
| CC1=C(C(=O)Nc2ccc(Cl)c(Cl)c2)C(c2ccco2)C(C(=O)Nc2ccc(Cl)c(Cl)c2)=C(C)N1 | 26.7 µM | 24.2 µM | 24.9 µM | 7.94 µM | – |
| COc1ccc(C(c2c(O)c3ccccc3n(C)c2=O)c2c(O)c3ccccc3n(C)c2=O)cc1 | > 100 µM | > 100 µM | > 100 µM | > 100 µM | – |
| N.N.NCCCCN.O=C([O-])C1(C(=O)[O-])CCC1.O=C([O-])C1(C(=O)[O-])CCC1.[Pt+4].[Pt+4] | > 100 µM | > 100 µM | – | – | GI50 [1]: > 100 µM; GI50 [2]: > 100 µM |
| Cc1ccc(Cl)c(NC(=O)C(=O)C(C(=O)c2ccncc2)C2OC(=O)c3ccccc32)c1 (stereo not given) | > 100 µM | > 100 µM | > 100 µM | > 100 µM | – |
| COC(=O)C1=C(CO)C2C=CC1C2 (stereo not given) | > 100 µM | > 100 µM | > 100 µM | > 100 µM | – |
| O=c1c2ccccc2c2nc3ccccc3nc2n1C1CCCCC1 | – | > 100 µM | > 100 µM | – | – |
| CCOC(=O)c1cn(Cc2ccccc2)c(=O)n1Cc1ccccc1 | > 100 µM | > 100 µM | > 100 µM | > 100 µM | – |
| O=C1CCC2(CC1)SCCCS2 | – | > 100 µM | > 100 µM | > 100 µM | – |
| Nc1nc2nc[nH]c2c(=O)[nH]1 | > 100 µM | > 100 µM | > 100 µM | > 100 µM | – |
| Cc1cc(Cl)cc2c1NC(=O)C2(O)C(C)C(=O)c1ccc(Cl)cc1 (stereo not given) | > 100 µM | > 100 µM | 26.2 µM | > 100 µM | – |
| CC(C)=CC(=O)Cc1nc2cc(C)c(C)cc2[nH]c1=O | > 100 µM | > 100 µM | > 100 µM | – | – |
| NCc1nnn(Cc2ccccc2)c1N | – | – | – | – | TGI [5]: > 100 µM; TGI [6]: > 100 µM; TGI [7]: > 100 µM; TGI [8]: > 100 µM; TGI [9]: > 100 µM |
| N#CCCN(c1ccc(-c2nnc(NC(=O)CNNC(=O)CC(=O)Nc3ccccc3)s2)cc1)S(=O)(=O)c1ccccc1 | > 100 µM | > 100 µM | > 100 µM | > 100 µM | – |
| COC(=O)[C@]1(C)CCC[C@@]2(C)C1CCC1=CC3(C(C)C)CCC12OO3 (stereo not given in full) | – | > 100 µM | > 100 µM | – | – |
